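Cultured in 96-well plates, cells were exposed to test compound for 48 hours across five concentrations. TGI: total growth inhibition.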
Key:
Experiment in all cases: NCI anticancer screen, dose series, 48 h
NCI-H23 lung = tested on: NCI-H23 lung
EKVX NSCLC = tested on: EKVX NSCLC
NCI-H226 lung = tested on: NCI-H226 lung
IGROV1 ovarian = tested on: IGROV1 ovarian
NCI-H522 lung = tested on: NCI-H522 lung
786-0 renal = tested on: 786-0 renal
RPMI-8226 leukemia = tested on: RPMI-8226 leukemia
NCI-H460 lung = tested on: NCI-H460 lung
LOX IMVI melanoma = tested on: LOX IMVI melanoma
MCF7 breast = tested on: MCF7 breast
MOLT-4 leukemia = tested on: MOLT-4 leukemia
ACHN renal = tested on: ACHN renal
SW-620 colon = tested on: SW-620 colon
HOP-92 NSCLC = tested on: HOP-92 NSCLC
HCC-2998 colon = tested on: HCC-2998 colon
TK-10 renal = tested on: TK-10 renal
MALME-3M melanoma = tested on: MALME-3M melanoma
SK-OV-3 ovarian = tested on: SK-OV-3 ovarian
SK-MEL-5 melanoma = tested on: SK-MEL-5 melanoma
SF-539 CNS = tested on: SF-539 CNS
NCI/ADR-RES ovarian = tested on: NCI/ADR-RES ovarian
K-562 leukemia = tested on: K-562 leukemia
SK-MEL-2 melanoma = tested on: SK-MEL-2 melanoma
SF-295 CNS = tested on: SF-295 CNS
MDA-N = tested on: MDA-N
SN12C renal = tested on: SN12C renal
MDA-MB-435 = tested on: MDA-MB-435
OVCAR-3 ovarian = tested on: OVCAR-3 ovarian
HT29 colon = tested on: HT29 colon
HCT-15 colon = tested on: HCT-15 colon
A549 NSCLC = tested on: A549 NSCLC
SF-268 CNS = tested on: SF-268 CNS
CAKI-1 renal = tested on: CAKI-1 renal
MDA-MB-231 breast = tested on: MDA-MB-231 breast
OVCAR-4 ovarian = tested on: OVCAR-4 ovarian
DU-145 prostate = tested on: DU-145 prostate
RXF 393 renal = tested on: RXF 393 renal
HS 578T breast = tested on: HS 578T breast
COLO 205 colon = tested on: COLO 205 colon
HOP-62 NSCLC = tested on: HOP-62 NSCLC
M14 melanoma = tested on: M14 melanoma
T-47D breast = tested on: T-47D breast
OVCAR-8 ovarian = tested on: OVCAR-8 ovarian
HL-60(TB) leukemia = tested on: HL-60(TB) leukemia
SK-MEL-28 melanoma = tested on: SK-MEL-28 melanoma
SNB-75 CNS = tested on: SNB-75 CNS
U251 CNS = tested on: U251 CNS
UACC-257 melanoma = tested on: UACC-257 melanoma
BT-549 breast = tested on: BT-549 breast
PC-3 prostate = tested on: PC-3 prostate
OVCAR-5 ovarian = tested on: OVCAR-5 ovarian
A498 renal = tested on: A498 renal
SR leukemia = tested on: SR leukemia
HCT-116 colon = tested on: HCT-116 colon
KM12 colon = tested on: KM12 colon
UACC-62 melanoma = tested on: UACC-62 melanoma
UO-31 renal = tested on: UO-31 renal
SNB-19 CNS = tested on: SNB-19 CNS

**Q.** What does the source list for `Clc1ccc(-c2nn3c(COc4cccc(OCc5nnc6sc(-c7ccc(Cl)cc7)nn56)c4)nnc3s2)cc1`?
**A.** TGI (NCI-H23 lung): 71.3 µM; TGI (EKVX NSCLC): 56.8 µM; TGI (NCI-H226 lung): > 100 µM; TGI (IGROV1 ovarian): > 100 µM; TGI (NCI-H522 lung): 55.3 µM; TGI (786-0 renal): 59.9 µM; TGI (RPMI-8226 leukemia): > 100 µM; TGI (NCI-H460 lung): > 100 µM; TGI (LOX IMVI melanoma): > 100 µM; TGI (MCF7 breast): 27.2 µM; TGI (MOLT-4 leukemia): 74.6 µM; TGI (ACHN renal): 68.4 µM; TGI (SW-620 colon): > 100 µM; TGI (HOP-92 NSCLC): > 100 µM; TGI (HCC-2998 colon): 96.2 µM; TGI (TK-10 renal): > 100 µM; TGI (MALME-3M melanoma): 50.4 µM; TGI (SK-OV-3 ovarian): > 100 µM; TGI (SK-MEL-5 melanoma): 50.7 µM; TGI (SF-539 CNS): 49.5 µM; TGI (NCI/ADR-RES ovarian): > 100 µM; TGI (K-562 leukemia): > 100 µM; TGI (SK-MEL-2 melanoma): > 100 µM; TGI (SF-295 CNS): > 100 µM; TGI (MDA-N): 36.4 µM; TGI (SN12C renal): 29.1 µM; TGI (MDA-MB-435): 41.7 µM; TGI (OVCAR-3 ovarian): 44 µM; TGI (HT29 colon): 60.2 µM; TGI (HCT-15 colon): > 100 µM; TGI (A549 NSCLC): 73.2 µM; TGI (SF-268 CNS): > 100 µM; TGI (CAKI-1 renal): 48.8 µM; TGI (MDA-MB-231 breast): > 100 µM; TGI (OVCAR-4 ovarian): 27.6 µM; TGI (DU-145 prostate): 74.3 µM; TGI (RXF 393 renal): 77.6 µM; TGI (HS 578T breast): > 100 µM; TGI (COLO 205 colon): 82.9 µM; TGI (HOP-62 NSCLC): > 100 µM; TGI (M14 melanoma): 75.9 µM; TGI (T-47D breast): 57 µM; TGI (OVCAR-8 ovarian): > 100 µM; TGI (HL-60(TB) leukemia): 53.6 µM; TGI (SK-MEL-28 melanoma): 35.9 µM; TGI (SNB-75 CNS): 73.5 µM; TGI (U251 CNS): 61.3 µM; TGI (UACC-257 melanoma): 62.1 µM; TGI (BT-549 breast): > 100 µM; TGI (PC-3 prostate): > 100 µM; TGI (OVCAR-5 ovarian): 74.4 µM; TGI (A498 renal): 61.8 µM; TGI (SR leukemia): 88.9 µM; TGI (HCT-116 colon): 44.7 µM; TGI (KM12 colon): > 100 µM; TGI (UACC-62 melanoma): 77.1 µM; TGI (UO-31 renal): 39.6 µM; TGI (SNB-19 CNS): > 100 µM

Reference: PubChem BioAssay (NCI)
